In ChEMBL document CHEMBL3525932, “Comparison of metabolism of sesamin and episesamin by drug-metabolizing enzymes in human liver” (Drug Metab Dispos, 2012):

Tests used:
Liver microsome [1] = experiment: Drug metabolism in human liver microsomes assessed as episesamin monocatecholization at 5 uM after 15 mins by HPLC analysis in presence of NADPH and CYP2C19 inhibitor (+)-N-3-benzylnirvanol; format: ADME; settings: 0.25 h
Liver microsome [2] = experiment: Drug metabolism in human liver microsomes assessed as (R)-episesamin monocatechol formation at 5 uM after 30 mins by HPLC analysis in presence of NADPH; format: ADME; settings: 0.5 h
Cytochrome P450 2C19 [3] = molecular target: T1, Cytochrome P450 2C19 (Homo sapiens, UniProt P33261); experiment: Activity of recombinant human CYP2C19 expressed in Saccharomyces cerevisiae AH22 cells assessed as enzyme-mediated episesamin dicatechol formation at 2 to 75 uM after 15 mins by HPLC analysis in presence of NADPH; format: ADME, cell-based; settings: ah22, 0.25 h
T1 sequence (P33261 whole entry): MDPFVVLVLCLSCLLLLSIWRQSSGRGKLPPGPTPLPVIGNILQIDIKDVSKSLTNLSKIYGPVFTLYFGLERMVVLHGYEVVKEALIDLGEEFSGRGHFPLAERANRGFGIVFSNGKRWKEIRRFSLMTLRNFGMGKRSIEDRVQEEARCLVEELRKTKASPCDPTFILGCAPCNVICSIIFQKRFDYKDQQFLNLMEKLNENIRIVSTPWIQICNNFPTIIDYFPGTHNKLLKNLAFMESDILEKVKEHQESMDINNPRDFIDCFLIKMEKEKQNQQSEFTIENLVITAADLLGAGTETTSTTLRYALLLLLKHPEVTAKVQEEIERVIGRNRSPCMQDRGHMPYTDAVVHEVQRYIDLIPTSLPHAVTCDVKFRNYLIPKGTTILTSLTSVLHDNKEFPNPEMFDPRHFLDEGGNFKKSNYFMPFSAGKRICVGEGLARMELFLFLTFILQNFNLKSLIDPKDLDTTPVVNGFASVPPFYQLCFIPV

Liver microsome [4] = experiment: Drug metabolism in heat-inactivated human liver microsomes assessed as episesamin dicatechol formation at 2 to 75 uM after 15 mins by HPLC analysis in presence of NADPH; format: ADME; settings: 0.25 h
Cytochrome P450 2C19 [5] = molecular target: T1, Cytochrome P450 2C19; experiment: Activity of recombinant human CYP2C19 expressed in Saccharomyces cerevisiae AH22 cells assessed as enzyme-mediated (R)-episesamin monocatechol formation at 2 to 75 uM after 15 mins by HPLC analysis in presence of NADPH; format: ADME, cell-based; settings: ah22, 0.25 h
Cytochrome P450 1A2 [6] = molecular target: T2, Cytochrome P450 1A2 (Homo sapiens, UniProt P05177); experiment: Activity of recombinant human CYP1A2 expressed in Saccharomyces cerevisiae AH22 cells assessed as enzyme-mediated episesamin dicatechol formation at 2 to 75 uM after 15 mins by HPLC analysis in presence of NADPH; format: ADME, cell-based; settings: ah22, 0.25 h
T2 sequence (P05177 whole entry): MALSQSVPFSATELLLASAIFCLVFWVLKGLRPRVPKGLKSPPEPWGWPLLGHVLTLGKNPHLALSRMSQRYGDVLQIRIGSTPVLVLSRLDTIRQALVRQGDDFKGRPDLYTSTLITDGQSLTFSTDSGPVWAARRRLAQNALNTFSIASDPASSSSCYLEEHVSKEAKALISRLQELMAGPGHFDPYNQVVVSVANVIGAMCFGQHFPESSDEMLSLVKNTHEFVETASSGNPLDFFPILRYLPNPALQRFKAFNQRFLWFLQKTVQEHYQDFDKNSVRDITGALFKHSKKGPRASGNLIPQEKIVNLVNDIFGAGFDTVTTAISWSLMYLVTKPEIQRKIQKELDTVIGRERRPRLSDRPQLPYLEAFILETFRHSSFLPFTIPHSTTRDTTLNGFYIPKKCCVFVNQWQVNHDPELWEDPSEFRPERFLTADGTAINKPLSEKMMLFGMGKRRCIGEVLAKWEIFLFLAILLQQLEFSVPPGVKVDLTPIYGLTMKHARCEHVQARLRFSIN

Cytochrome P450 2C19 [7] = molecular target: T1, Cytochrome P450 2C19; experiment: Activity of recombinant human CYP2C19 expressed in Saccharomyces cerevisiae AH22 cells assessed as enzyme-mediated (S)-episesamin monocatechol formation at 2 to 75 uM after 15 mins by HPLC analysis in presence of NADPH; format: ADME, cell-based; settings: ah22, 0.25 h
CYP2C9 [8] = molecular target: T3, CYP2C9 (Homo sapiens, UniProt P11712); experiment: Ratio of Kinact to Ki(app) for mechanism-based inhibition of recombinant human CYP2C9 expressed in microsomes isolated from Saccharomyces cerevisiae AH22 cells assessed as diclofenac 4'-hydroxylation preincubated for 5 to 10 mins followed by substrate addition measured after 15 mins by HPLC analysis; format: ADME, cell-based; settings: probe diclofenac (4'-hydroxylation)
T3 sequence (P11712 whole entry): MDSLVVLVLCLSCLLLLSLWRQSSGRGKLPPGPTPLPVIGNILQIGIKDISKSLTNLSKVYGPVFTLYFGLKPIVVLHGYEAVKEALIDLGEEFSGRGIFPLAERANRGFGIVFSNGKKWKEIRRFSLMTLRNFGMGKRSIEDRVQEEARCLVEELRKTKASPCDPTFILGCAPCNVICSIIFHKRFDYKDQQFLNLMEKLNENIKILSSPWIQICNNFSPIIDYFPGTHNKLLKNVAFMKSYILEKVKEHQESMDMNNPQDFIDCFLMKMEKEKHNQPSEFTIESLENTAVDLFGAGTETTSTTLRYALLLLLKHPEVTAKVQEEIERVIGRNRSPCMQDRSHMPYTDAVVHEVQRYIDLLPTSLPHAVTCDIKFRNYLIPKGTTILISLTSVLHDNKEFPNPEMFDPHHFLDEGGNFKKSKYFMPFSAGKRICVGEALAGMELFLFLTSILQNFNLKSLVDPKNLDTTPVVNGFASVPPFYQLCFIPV

CYP2C9 [9] = molecular target: T3, CYP2C9; experiment: (§1) Mechanism-based inhibition of recombinant human CYP2C9 expressed in microsomes isolated from Saccharomyces cerevisiae AH22 cells assessed as diclofenac 4'-hydroxylation preincubated for 5 to 10 mins followed by substrate addition measured after 15 mins by HPLC analysis; format: ADME, cell-based; settings: human, probe diclofenac (4'-hydroxylation)
Cytochrome P450 2C9 [10] = molecular target: T4, Cytochrome P450 2C9 (Homo sapiens, UniProt P11712); experiment: as §1; format: ADME, cell-based
T4 sequence (P11712 whole entry): as above

[11] = Drug metabolism in Sprague-Dawley rat liver microsomes assessed as CYP450-mediated catecholization per mg of protein after 10 to 30 mins by HPLC analysis in presence of NADPH; format: ADME
Cytochrome P450 2C9 [12] = molecular target: T4, Cytochrome P450 2C9; experiment: Activity of recombinant human CYP2C9 expressed in Saccharomyces cerevisiae AH22 cells assessed as enzyme-mediated (S)-episesamin monocatechol formation at 2 to 75 uM after 15 mins by HPLC analysis in presence of NADPH; format: ADME, cell-based; settings: ah22, 0.25 h
Liver microsome [13] = experiment: Drug metabolism in human liver microsomes assessed as (S)-episesamin monocatechol formation at 5 uM after 15 mins by HPLC analysis in presence of NADPH and anti-CYP1A2 antibody; format: ADME; settings: 0.25 h
[14] = Drug metabolism in human liver microsomes assessed as CYP450-mediated catecholization per mg of protein after 10 to 30 mins by HPLC analysis in presence of NADPH; format: ADME
Cytochrome P450 2C9 [15] = molecular target: T4, Cytochrome P450 2C9; experiment: Mechanism-based inhibition of recombinant human CYP2C9 expressed in microsomes isolated from Saccharomyces cerevisiae AH22 cells assessed as diclofenac 4'-hydroxylation up to 50 uM preincubated for 5 to 10 mins followed by substrate addition measured by HPLC analysis; format: ADME, cell-based
Liver microsome [16] = experiment: Drug metabolism in human liver microsomes assessed as (R)-episesamin monocatechol formation at 5 uM after 15 mins by HPLC analysis in presence of NADPH and anti-CYP2C9 antibody; format: ADME; settings: 0.25 h
Cytochrome P450 1A2 [17] = molecular target: T2, Cytochrome P450 1A2; experiment: Activity of recombinant human CYP1A2 expressed in Saccharomyces cerevisiae AH22 cells assessed as enzyme-mediated (R)-episesamin monocatechol formation at 2 to 75 uM after 15 mins by HPLC analysis in presence of NADPH; format: ADME, cell-based; settings: ah22, 0.25 h
Cytochrome P450 2E1 = Cytochrome P450 2E1 (Homo sapiens, UniProt P05181); experiment: Activity of recombinant human CYP2E1 expressed in Saccharomyces cerevisiae AH22 cells assessed as enzyme-mediated catecholization at 2 to 75 uM after 15 mins by HPLC analysis in presence of NADPH; format: ADME, cell-based; settings: ah22, 0.25 h
Sequence of Cytochrome P450 2E1 (P05181 whole entry): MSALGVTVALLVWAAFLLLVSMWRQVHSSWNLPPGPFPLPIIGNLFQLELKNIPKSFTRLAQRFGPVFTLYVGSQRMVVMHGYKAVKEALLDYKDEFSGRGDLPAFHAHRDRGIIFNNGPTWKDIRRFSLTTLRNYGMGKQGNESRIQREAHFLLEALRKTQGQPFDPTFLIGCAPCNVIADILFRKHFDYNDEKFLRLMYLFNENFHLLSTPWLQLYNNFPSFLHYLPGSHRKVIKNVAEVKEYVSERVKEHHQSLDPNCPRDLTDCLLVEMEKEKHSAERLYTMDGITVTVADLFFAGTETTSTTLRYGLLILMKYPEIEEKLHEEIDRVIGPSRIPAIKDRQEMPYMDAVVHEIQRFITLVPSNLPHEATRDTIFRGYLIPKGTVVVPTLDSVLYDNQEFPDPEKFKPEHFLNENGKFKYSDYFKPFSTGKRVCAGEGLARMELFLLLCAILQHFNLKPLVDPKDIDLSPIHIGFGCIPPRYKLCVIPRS

Cytochrome P450 2D6 = Cytochrome P450 2D6 (Homo sapiens, UniProt P10635); experiment: Activity of recombinant human CYP2D6 expressed in Saccharomyces cerevisiae AH22 cells assessed as enzyme-mediated catecholization at 2 to 75 uM after 15 mins by HPLC analysis in presence of NADPH; format: ADME, cell-based; settings: ah22, 0.25 h
Sequence of Cytochrome P450 2D6 (P10635 whole entry): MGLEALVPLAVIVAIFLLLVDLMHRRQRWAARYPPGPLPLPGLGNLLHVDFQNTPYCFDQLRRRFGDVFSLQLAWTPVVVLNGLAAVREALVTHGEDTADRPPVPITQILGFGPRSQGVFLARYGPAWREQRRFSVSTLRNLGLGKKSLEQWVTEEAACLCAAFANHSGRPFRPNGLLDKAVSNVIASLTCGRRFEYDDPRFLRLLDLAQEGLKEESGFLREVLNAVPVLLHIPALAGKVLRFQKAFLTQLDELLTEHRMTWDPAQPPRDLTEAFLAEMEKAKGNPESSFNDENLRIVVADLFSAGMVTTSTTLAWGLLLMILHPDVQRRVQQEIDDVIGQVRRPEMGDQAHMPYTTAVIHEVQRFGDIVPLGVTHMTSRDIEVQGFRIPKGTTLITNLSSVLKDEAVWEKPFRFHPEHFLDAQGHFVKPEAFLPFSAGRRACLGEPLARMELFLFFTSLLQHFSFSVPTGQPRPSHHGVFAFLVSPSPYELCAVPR

Liver microsome [18] = experiment: Drug metabolism in human liver microsomes assessed as (R)-episesamin monocatechol formation at 2 to 75 uM after 15 mins by HPLC analysis in presence of NADPH; format: ADME; settings: 0.25 h
Liver microsome [19] = experiment: Drug metabolism in human liver microsomes assessed as (S)-episesamin monocatechol formation at 5 uM after 15 mins by HPLC analysis in presence of NADPH and anti-CYP2C9 antibody; format: ADME; settings: 0.25 h
CYP450 [20] = experiment: Drug metabolism in human liver microsomes assessed as CYP450-mediated catecholization after 10 to 30 mins by HPLC analysis in presence of NADPH; format: ADME
CYP450 [21] = experiment: Drug metabolism in Sprague-Dawley rat liver microsomes assessed as CYP450-mediated catecholization after 10 to 30 mins by HPLC analysis in presence of NADPH; format: ADME
Cytochrome P450 2C9 [22] = molecular target: T4, Cytochrome P450 2C9; experiment: Activity of recombinant human CYP2C9 expressed in Saccharomyces cerevisiae AH22 cells assessed as enzyme-mediated (R)-episesamin monocatechol formation at 2 to 75 uM after 15 mins by HPLC analysis in presence of NADPH; format: ADME, cell-based; settings: ah22, 0.25 h
Liver microsome [23] = experiment: Drug metabolism in human liver microsomes assessed as (S)-episesamin monocatechol formation at 5 uM after 30 mins by HPLC analysis in presence of NADPH; format: ADME; settings: 0.5 h
Liver microsome [24] = experiment: Drug metabolism in human liver microsomes assessed as episesamin dicatechol formation at 2 to 75 uM after 15 mins by HPLC analysis in presence of NADPH; format: ADME; settings: 0.25 h
Liver microsome [25] = experiment: Drug metabolism in human liver microsomes assessed as (S)-episesamin monocatechol formation at 2 to 75 uM after 15 mins by HPLC analysis in presence of NADPH; format: ADME; settings: 0.25 h
Cytochrome P450 3A4 = Cytochrome P450 3A4 (Homo sapiens, UniProt P08684); experiment: Activity of recombinant human CYP3A4 expressed in Saccharomyces cerevisiae AH22 cells assessed as enzyme-mediated catecholization at 2 to 75 uM after 15 mins by HPLC analysis in presence of NADPH; format: ADME, cell-based; settings: ah22, 0.25 h
Sequence of Cytochrome P450 3A4 (P08684 whole entry): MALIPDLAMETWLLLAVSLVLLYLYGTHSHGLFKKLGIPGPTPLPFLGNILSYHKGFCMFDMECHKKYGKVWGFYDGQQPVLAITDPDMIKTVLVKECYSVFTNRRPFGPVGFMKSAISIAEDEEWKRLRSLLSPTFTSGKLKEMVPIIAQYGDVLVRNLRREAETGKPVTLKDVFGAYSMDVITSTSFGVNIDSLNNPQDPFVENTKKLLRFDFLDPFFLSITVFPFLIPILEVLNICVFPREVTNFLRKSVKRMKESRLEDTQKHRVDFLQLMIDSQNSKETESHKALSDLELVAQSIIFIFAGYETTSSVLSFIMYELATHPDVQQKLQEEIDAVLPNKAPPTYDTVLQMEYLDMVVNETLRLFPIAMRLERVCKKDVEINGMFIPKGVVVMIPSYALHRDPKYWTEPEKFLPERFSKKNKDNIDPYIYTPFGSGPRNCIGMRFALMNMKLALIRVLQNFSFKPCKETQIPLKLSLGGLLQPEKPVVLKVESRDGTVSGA

Liver microsome [26] = experiment: Drug metabolism in human liver microsomes assessed as episesamin monocatecholization at 5 uM after 15 mins by HPLC analysis in presence of NADPH and CYP2C9 inhibitor sulfaphenazole; format: ADME; settings: 0.25 h
Cytochrome P450 2C9 [27] = molecular target: T4, Cytochrome P450 2C9; experiment: Activity of recombinant human CYP2C9 expressed in Saccharomyces cerevisiae AH22 cells assessed as enzyme-mediated episesamin dicatechol formation at 2 to 75 uM after 15 mins by HPLC analysis in presence of NADPH; format: ADME, cell-based; settings: ah22, 0.25 h
Liver microsome [28] = experiment: Drug metabolism in human liver microsomes assessed as (R)-episesamin monocatechol formation at 5 uM after 15 mins by HPLC analysis in presence of NADPH and anti-CYP1A2 antibody; format: ADME; settings: 0.25 h
Liver microsome [29] = experiment: Drug metabolism in human liver microsomes assessed as sesamin monocatechol formation after 30 mins by HPLC analysis in presence of NADPH; format: ADME; settings: 0.5 h
Cytochrome P450 2C19 [30] = molecular target: T1, Cytochrome P450 2C19; experiment: Activity of recombinant human CYP2C19 expressed in Saccharomyces cerevisiae AH22 cells assessed as enzyme-mediated sesamin dicatechol/monocatechol formation at 2 to 20 uM after 15 mins by HPLC analysis in presence of NADPH; format: ADME, cell-based; settings: ah22, 0.25 h

## c1cc2c(cc1[C@H]1OC[C@H]3[C@@H]1CO[C@H]3c1ccc3c(c1)OCO3)OCO2 [ASARININ]
Liver microsome [1]
  Drug metabolism: metabolite_detected
Liver microsome [2]
  Drug metabolism: metabolite_detected
Cytochrome P450 2C19 [3]
  Drug metabolism: metabolite_detected
Liver microsome [4]
  Drug metabolism: metabolite_not_detected
Cytochrome P450 2C19 [5]
  Drug metabolism: metabolite_detected
Cytochrome P450 1A2 [6]
  Drug metabolism: metabolite_not_detected
Cytochrome P450 2C19 [7]
  Drug metabolism: metabolite_detected
CYP2C9 [8]
  kinact/KI at 0.25 h: 417 M⁻¹ s⁻¹
CYP2C9 [9]
  kinact at 0.25 h: 0.00283 s⁻¹
Cytochrome P450 2C9 [10]; human, microsomes, 0.25 h
  inhibition (INH): Dose-dependent effect
Cytochrome P450 2C9 [10]; read-out: Ki(app)
  Ki: 6.8 µM
[11]
  Vmax: 6.3 nmol/min/mg
Cytochrome P450 2C9 [12]
  Drug metabolism: metabolite_detected
Liver microsome [13]
  Drug metabolism: metabolite_detected
[14]
  Vmax: 0.4 nmol/min/mg
Cytochrome P450 2C9 [15]
  inhibition (INH): Dose-dependent effect
Liver microsome [16]
  Drug metabolism: metabolite_not_detected
Cytochrome P450 1A2 [17]
  Drug metabolism: metabolite_detected
Cytochrome P450 2E1
  Drug metabolism: metabolite_not_detected
Cytochrome P450 2D6
  Drug metabolism: metabolite_not_detected
Liver microsome [18]
  Drug metabolism: metabolite_detected
Liver microsome [19]
  Drug metabolism: metabolite_not_detected
CYP450 [20]
  Km: 13 µM
CYP450 [21]
  Km: 16 µM
Cytochrome P450 2C9 [22]
  Drug metabolism: metabolite_detected
Liver microsome [23]
  Drug metabolism: metabolite_detected
Liver microsome [24]
  Drug metabolism: metabolite_detected
Liver microsome [25]
  Drug metabolism: metabolite_detected
Cytochrome P450 3A4
  Drug metabolism: metabolite_not_detected
Liver microsome [26]
  Drug metabolism: metabolite_not_detected
Cytochrome P450 2C9 [27]
  Drug metabolism: metabolite_not_detected
Liver microsome [28]
  Drug metabolism: metabolite_not_detected

## c1cc2c(cc1[C@H]1OC[C@H]3[C@@H]1CO[C@@H]3c1ccc3c(c1)OCO3)OCO2 [SESAMIN]
Liver microsome [29]
  Drug metabolism: metabolite_detected
CYP2C9 [8]
  kinact/KI at 0.25 h: 2330 M⁻¹ s⁻¹
Cytochrome P450 2C19 [30]
  Drug metabolism: metabolite_detected
[11]
  Vmax: 4.8 nmol/min/mg
[14]
  Vmax: 0.81 nmol/min/mg
CYP450 [20]
  Km: 7.7 µM
CYP450 [21]
  Km: 7.1 µM
